Key:
[1] = Intrinsic clearance in rat liver microsomes; format: in vitro ADME; conditions: for microsomal CLint at 0.5 μM: pH 7.4, read-out: Cl (μL/min/mg protein) - Rat Microsomes
Description: Methods: The general procedure involved incubating test compounds with liver microsomes and subsequently detecting the compounds to determine intrinsic clearance. Clearance was estimated from the rate of depletion k (min-1), the volume of the incubation V (mL), and the amount of microsomal proteins in the incubation M (mg). Intrinsic clearance is defined by the following equation: Clint=k*V/M.
Values for CLint are expressed as μL/min/mg liver microsomes. Verapamil and dextromethorphan were used as positive controls for CYP3A4 and CYP2D6 isoforms, respectively, to confirm metabolic activity. Stock solutions were prepared in DMSO for therapeutic compounds and positive controls verapamil and dextromethorphan (10 mM for all). Working solutions were prepared by diluting stock in MeOH to reach […]. However, this concentration can be varied, e.g., when the test item is not soluble in the selected solvent.
Prior to experimentation, frozen liver microsomes were thawed in a water bath at 37° C. and kept on ice until use. The microsomes were then diluted with 50 mM potassium phosphate buffer pH 7.4 to a protein concentration of 0.56 mg/mL. To prepare test and control items in final incubation conditions, 5 μL of test compound and positive control working solutions were added to 445 μL of microsomes incubation mixture at 0.56 mg/mL and 50 μL of regenerating system.
As it relates to the automated incubation procedure for microsomes incubation, the following procedure was followed. Briefly, 150 μL of quenching solution (ACN containing an appropriate Internal Standard, i.e. Rolipram and Diclofenac for positive and negative ion mode, respectively) was manually dispensed or dispensed by using the Hamilton system in each well of 96 deep well 1 mL plates. Next, 800-1000 μL-aliquots of NADPH regenerating system were pre-warmed at 37° C. for 5 minutes. 5 μL of 50 µM test items and control were added to 445 μL of the 0.56 mg/mL microsomes solution, and the incubation mixture was pre-warmed in a 96 deep well 2 mL plate (incubation plate) at 37° C. for 5 minutes. The incubation reactions were initiated by adding 50 μL of pre-warmed NADPH regenerating system to the incubation mixtures.
50 μL-aliquots were sampled from incubation mixtures at: 0, 3, 10, 15, 30, and 45 minutes. The samples were centrifuged at 3,000 rpm for 10 minutes and further diluted in order to optimize the analytical condition prior to the LC MS/MS or Rapid Fire-MS/MS analysis. Incubations of test items were run in duplicate (n=2) with a single positive control (n=1). For sample analysis, an LC-MS/MS system was used to monitor the test samples/control to internal standard peak area ratios as representative of the test or control item's concentration. Data from test item incubation was processed to give mean values where applicable. Metabolic stability was calculated from the ratio of peak area of the remaining test or control item with internal standard versus time.
Peak areas for test and control items were integrated using Integrator Software from Agilent or Analyst or MultiQuant Software from AB SciexTM and were exported to XLFit or Morphit (The Edge), which were designed to calculate in vitro metabolic stability parameters. The integrated peak areas of the test and control items at the selected time points were divided by the respective peak areas of the IS, and the percent of parent remaining was calculated by normalizing the peak area ratio of parent to IS at 0 min. Observed rate constant (kobs) for parent degradation was calculated by determining the slope of the line of the graph of the natural log of percentage parent remaining versus time of incubation. This was scaled for the protein in the incubation relative to that in the liver.

[2] = system: DA release in rat synaptosomes; assay: Dopamine release assay in rat striatal synaptosomes; format: biochemical; conditions: % of maximal release with 50 μM MDMA, n=2
Description: Methods-Evaluation of Monoamine Release: The potency of therapeutic compounds for stimulating DA release was measured by an endpoint release filtration assay in a 96-well format using rat synaptosomes, essentially as described by Sandtner et al. (Mol Pharmacol., 2016; 89(1):165-75.) and Baumann et al. (Neuropsychopharmacol, 2013; 38:552-562.) with some variations. One male rat was euthanized, and striatum/cortex regions were dissected over ice. The striatum portions were weighed and put in a glass tube containing ice-cold 0.32 M sucrose (dilution 1:24 w/v) for homogenization, while the frontal cortex tissue was diluted in ice-cold 0.32 M sucrose, 1:20 w/v. Tissues were homogenized and centrifuged for 10 mins at 1000×g. The two supernatants from striatum and cortex (crude synaptosomes) were retained on ice until use.
Test compounds were then serially diluted 1:4 in neat DMSO as concentration-response curves (CRC) of 11 points. To each well of a 2-mL 96 deep-well plate (Whatman UNIPLATE 96 well) were added: 2 μL of a concentration-response curve (CRC) of test compounds or 2 μL of DMSO (no-release condition) or 2 μL of MDMA 10 mM solution (final 50 μM, for maximal release), followed by 200 μL/well of complete Krebs-phosphate buffer (126 mM NaCl, 2.4 mM KCl, 0.83 mM CaCl2), 0.8 mM MgCl2, 0.5 mM KH2PO4, 0.5 mM Na2SO4, 11.1 mM glucose, 0.05 mM pargyline, 1 mg/mL ascorbic acid, freshly added, pH 7.4), containing 1 μM reserpine to block vesicular uptake of substrate. Desipramine (100 nM) and citalopram (100 nM) were also added to the release assay buffer in order to inhibit NET and SERT uptake, respectively. The final compound dilution, then, was 1:200 in 0.5% DMSO.
3H-Dopamine was added to the tube containing the crude striatal synaptosomes preparation, diluted 1:20 (v/v) in complete Krebs-phosphate buffer, and was incubated at RT and gently mixed for 60 minutes. Then, 200 μL/well of 3H-DA loaded synaptosomes were dispensed to the compound plate (final 400 μL/well), and the release reaction proceeded for an additional 15 minutes at RT. The release was terminated by vacuum filtration and washing three times with 1 mL of saline solution (NaCl 0.9%) at RT. The retained radioactivity was counted in a scintillation counter after the addition of 50 μL/well Microscint-20.
The raw data (cpm) from residual radioactivity onto the filter were elaborated for the determination of pEC50/EC50 values. Specifically, the compound effect was expressed as the percent of maximal release obtained with 50 μM MDMA (100% release) in comparison to vehicle (0.5% DMSO, 0% release). Both MDMA and D-amphetamine in CRC were used as internal controls in each release experiment. In each plate, for both 0% and 100% of release, the signal window was monitored and Z′ calculations were determined using the raw data of four replicates. 5-HT release was calculated in an identical fashion, except that 5 nM 3H-serotonin was added to crude cortex synaptosomes preparation diluted 1:13 (v/v) in complete Krebs-phosphate buffer containing 1 μM Reserpine, 100 nM GBR12909 and 100 nM nomifensine to block vesicular, DAT, and NET uptake, respectively. Synaptosomes were then loaded with 3H-5HT for 60 minutes at RT. After dispensing loaded synaptosomes onto a compound plate (200 μL/well), the release reaction proceeded for an additional 15 minutes. Stop by filtration, counting, and data elaboration were performed as described for DA release. Compounds were tested in duplicate (n=2).

Compound: COC(=O)c1cc2c(cc1OC)CC(N)C2 (stereo not shown) [CMP-401]
- microsomal CLint at 0.5 μM [1]: 121 µL/min/mg
- DA Release (pEC50) [2]: <4.0

Compound: COC(=O)COc1ccc2c(c1)CC(N)C2 (stereo not shown) [CMP-402]
- Cl (μL/min/mg protein) - Rat Microsomes [1]: greatest clearance
- microsomal CLint at 0.5 μM [1]: 2050 µL/min/mg
- DA Release (pEC50) [2]: <4.0

Compound: COC(=O)c1ccc2c(c1)CC(N)C2 (stereo not shown) [CMP-405, 2-aminoindane-5-methylcarboxylate]
- microsomal CLint at 0.5 μM [1]: 143 µL/min/mg
- DA Release (pEC50) [2]: 5.6

Compound: CNC(C)Cc1ccc2c(c1)OCO2 (stereo not shown) [MDMA]
- Cl (μL/min/mg protein) - Rat Microsomes [1]: 395 μL/min/mg protein
- DA Release (pEC50) [2]: 6.6

Compound: COc1ccc2c(c1)CC(N)C2 (stereo not shown) [MEAI, 5-methoxy-2-aminoindane]
- microsomal CLint at 0.5 μM [1]: 156 µL/min/mg
- DA Release (pEC50) [2]: 5.4

Compound: COc1cc2c(cc1C)CC(N)C2 (stereo not shown) [MMAI, 5-methoxy-6-methyl-2-aminoindane]
- microsomal CLint at 0.5 μM [1]: 200 µL/min/mg
- DA Release (pEC50) [2]: 4.6
